According to ChEMBL document CHEMBL5729562, “Proteasome activity enhancing compounds” (2023):

Biological target: Ubiquitin carboxyl-terminal hydrolase 14 (Homo sapiens, UniProt P54578)
Assay: Usp14 Inhibition Assay: Usp14 Inhibition Assay was described in B. H. Lee et al. Nature 2010, 467 (9), 179.

Ubiquitin carboxyl-terminal hydrolase 14, sequence (P54578 whole entry): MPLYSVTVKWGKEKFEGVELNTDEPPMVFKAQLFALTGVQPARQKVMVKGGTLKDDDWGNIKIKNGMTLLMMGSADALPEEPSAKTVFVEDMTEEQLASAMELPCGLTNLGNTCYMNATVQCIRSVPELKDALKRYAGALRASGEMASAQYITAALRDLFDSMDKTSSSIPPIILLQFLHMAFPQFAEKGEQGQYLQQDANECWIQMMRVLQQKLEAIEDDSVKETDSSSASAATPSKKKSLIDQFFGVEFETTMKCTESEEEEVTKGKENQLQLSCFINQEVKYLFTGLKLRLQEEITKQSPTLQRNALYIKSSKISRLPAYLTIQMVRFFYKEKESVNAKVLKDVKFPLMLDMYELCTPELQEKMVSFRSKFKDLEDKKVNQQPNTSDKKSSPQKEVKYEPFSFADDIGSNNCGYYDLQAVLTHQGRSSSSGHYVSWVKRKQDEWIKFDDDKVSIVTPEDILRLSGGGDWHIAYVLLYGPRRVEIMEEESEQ

Structure (SMILES)	IC50
Cc1c(C(=O)CN2C3CCC2CC3)cc(C#CCCC#N)n1-c1ccc(C#N)cc1	< 50 nM
Cc1c(C(=O)CN2C3CC4CC2CC(C3)O4)cc(CCCCC#N)n1-c1ccc(C#N)cc1	< 50 nM
